The subject of this experiment is NBD1/3D. The experiment can be described thus: Aggregation analysis using differential static light scattering (DSLS), NBD1 thermal stability. The conditions noted are these: ΔTagg versus DMSO control; compound at 100 μM. Format: binding, Human. Summed up: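 Thermal stabilisation reported as ΔTagg, i.e. aggregation temperature relative to averaged DMSO wells. Tagg came from the inflection of differential static light scattering imaged 25–70 °C while NBD1 (0.2 mg/ml, Tris pH 7.6 buffer containing ATP, MgCl2, DTT, glycerol) was ramped 1 °C/min.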

`CS(=O)(=O)c1c(Oc2ccc(F)c(-c3ncc(Cc4cccc(CCC(N)=O)c4)[nH]3)c2)c(F)cc2[nH]ccc12` [Example 24, 3-(3-((2-(2-Fluoro-5-((6-fluoro-4-(methylsulfonyl)-1H-indol-5-yl)oxy)phenyl)-1H-imidazol-5-yl)methyl)phenyl)propanamide]: the “DSLS NBD1/3D Human Stability delta-T (° C.) @ 100 (μM)” value (from here on “DSLS NBD1/3D Human Stability delta-T”) is “B (B: 5-10° C.)”. The same measure for `O=C(O)CCc1cccc(Cc2nnc(-c3cccc(Oc4c(F)cc5[nH]ccc5c4[S+]([O-])C(F)F)c3)[nH]2)c1` (stereo not shown) [Example 25, 3-(3-((5-(3-((4-((Difluoromethyl)sulfinyl)-6-fluoro-1H-indol-5-yl)oxy)phenyl)-4H-1,2,4-triazol-3-yl)methyl)phenyl)propanoic acid]: “C (C: ≤5° C.)”; for `CC(O)(c1cccc(CCC(=O)O)c1)c1cnc(-c2cc(Oc3c(F)cc4[nH]ccc4c3S(C)(=O)=O)ccc2F)[nH]1` (stereo not shown) [Example 26, 3-(3-(1-(2-(2-Fluoro-5-((6-fluoro-4-(methylsulfonyl)-1H-indol-5-yl)oxy)phenyl)-1H-imidazol-5-yl)-1-hydroxyethyl)phenyl)propanoic acid]: “A (A: T ≥ 10° C.)”. The same measure for `CCS(=O)(=O)c1c(Oc2ccc(F)c(-c3ncc(C(C)(O)c4cccc(CCC(=O)O)c4)[nH]3)c2)c(F)cc2[nH]ccc12` (stereo not shown) [Example 27, 3-(3-(1-(2-(5-((4-(ethylsulfonyl)-6-fluoro-1H-indol-5-yl)oxy)-2-fluorophenyl)-1H-imidazol-5-yl)-1-hydroxyethyl)phenyl)propanoic acid]: “B (B: 5-10° C.)”; for `CC(O)(c1cccc(CCC(=O)O)c1)c1cnc(-c2cccc(Oc3c(F)cc4[nH]ccc4c3S(=O)(=O)CC(F)F)c2)[nH]1` (stereo not shown) [Example 28, 3-(3-(1-(2-(3-((4-((2,2-difluoroethyl)sulfonyl)-6-fluoro-1H-indol-5-yl)oxy)phenyl)-1H-imidazol-5-yl)-1-hydroxyethyl)phenyl)propanoic acid]: “A (A: T ≥ 10° C.)”; for `CC(C)S(=O)(=O)c1c(Oc2ccc(F)c(-c3nc(C(C)(O)c4cccc(CCC(=O)O)c4)c[nH]3)c2)c(F)cc2[nH]ccc12` (stereo not shown) [Example 29, 3-(3-(1-(2-(2-fluoro-5-((6-fluoro-4-(isopropylsulfonyl)-1H-indol-5-yl)oxy)phenyl)-1H-imidazol-4-yl)-1-hydroxyethyl)phenyl)propanoic acid]: “B (B: 5-10° C.)”. Regarding `CC(O)(c1cccc(CCC(N)=O)c1)c1cnc(-c2cc(Oc3c(F)cc4[nH]ccc4c3S(C)(=O)=O)ccc2F)[nH]1` (stereo not shown) [Example 30, 3-(3-(1-(2-(2-Fluoro-5-((6-fluoro-4-(methylsulfonyl)-1H-indol-5-yl)oxy)phenyl)-1H-imidazol-5-yl)-1-hydroxyethyl)phenyl)propanamide], the “DSLS NBD1/3D Human Stability delta-T” value is listed as “B (B: 5-10° C.)”. `Cn1nc(-c2cccc(Oc3c(F)cc4[nH]ccc4c3S(C)(=O)=O)c2)nc1Cc1cccc(CCC(=O)O)c1` [Example 31, 3-(3-((3-(3-((6-Fluoro-4-(methylsulfonyl)-1H-indol-5-yl)oxy)phenyl)-1-methyl-1H-1,2,4-triazol-5-yl)methyl)phenyl)propanoic acid]: the “DSLS NBD1/3D Human Stability delta-T” value is listed as “B (B: 5-10° C.)”. In the case of `CS(=O)(=O)c1c(Oc2cccc(-c3ncn(Cc4cccc(CCC(=O)O)c4)n3)c2)c(F)cc2[nH]ccc12` [Example 32, 3-(3-((3-(3-((6-Fluoro-4-(methylsulfonyl)-1H-indol-5-yl)oxy)phenyl)-1H-1,2,4-triazol-1-yl)methyl)phenyl)propanoic acid], the “DSLS NBD1/3D Human Stability delta-T” value was “B (B: 5-10° C.)”. The same measure for `C[S+]([O-])c1c(Oc2cccc(-c3ncn(Cc4cccc(CCC(=O)O)c4)n3)c2)c(F)cc2[nH]ccc12` (stereo not shown) [Example 33, 3-(3-((3-(3-((6-Fluoro-4-(methylsulfinyl)-1H-indol-5-yl)oxy)phenyl)-1H-1,2,4-triazol-1-yl)methyl)phenyl)propanoic acid]: “B (B: 5-10° C.)”; for `CS(=O)(=O)c1c(Oc2cccc(-c3ncn(Cc4cccc(CCC(N)=O)c4)n3)c2)c(F)cc2[nH]ccc12` [Example 34, 3-(3-((3-(3-((6-Fluoro-4-(methylsulfonyl)-1H-indol-5-yl)oxy)phenyl)-1H-1,2,4-triazol-1-yl)methyl)phenyl)propanamide]: “B (B: 5-10° C.)”; for `CS(=O)(=O)c1c(Oc2cccc(-c3nc(Cc4cccc(CCC(=O)O)c4)cs3)c2)c(F)cc2[nH]ccc12` [Example 35, 3-(3-((2-(3-((6-Fluoro-4-(methylsulfonyl)-1H-indol-5-yl)oxy)phenyl)thiazol-4-yl)methyl)phenyl)propanoic acid]: “B (B: 5-10° C.)”.

On to `C[S+]([O-])c1c(Oc2cccc(-c3nc(Cc4cccc(CCC(=O)O)c4)cs3)c2)c(F)cc2[nH]ccc12` (stereo not shown) [Example 36, 3-(3-((2-(3-((6-Fluoro-4-(methylsulfinyl)-1H-indol-5-yl)oxy)phenyl)thiazol-4-yl)methyl)phenyl)propanoic acid], for which the “DSLS NBD1/3D Human Stability delta-T” value is on record as “B (B: 5-10° C.)”. The same measure for `CC(O)(c1cccc(CCC(=O)O)c1)c1csc(-c2cccc(Oc3c(F)cc4[nH]ccc4c3S(C)(=O)=O)c2)n1` (stereo not shown) [Example 37, 3-(3-(1-(2-(3-((6-Fluoro-4-(methylsulfonyl)-1H-indol-5-yl)oxy)phenyl)thiazol-4-yl)-1-hydroxyethyl)phenyl)propanoic acid]: “B (B: 5-10° C.)”; for `CC(c1cccc(CCC(=O)O)c1)n1ccc(-c2cc(Oc3c(F)cc4[nH]ccc4c3S(C)(=O)=O)ccc2F)n1` (stereo not shown) [Example 38, 3-(3-(1-(3-(2-Fluoro-5-((6-fluoro-4-(methylsulfonyl)-1H-indol-5-yl)oxy)phenyl)-1H-pyrazol-1-yl)ethyl)phenyl)propanoic acid]: “B (B: 5-10° C.)”.

Regarding `CS(=O)(=O)c1c(Oc2cccc(-c3nc(Cc4cccc(CCC(=O)O)c4)co3)c2)c(F)cc2[nH]ccc12` [Example 42, 3-(3-((2-(3-((6-Fluoro-4-(methylsulfonyl)-1H-indol-5-yl)oxy)phenyl)oxazol-4-yl)methyl)phenyl)propanoic acid], the “DSLS NBD1/3D Human Stability delta-T” value is reported as “B (B: 5-10° C.)”.

For the compound `CS(=O)(=O)c1c(Oc2ccc(F)c(-c3ncc(C4(c5cccc(CCC(=O)O)c5)OCCCO4)[nH]3)c2)c(F)cc2[nH]ccc12` [Example 44, 3-(3-(2-(2-(2-Fluoro-5-((6-fluoro-4-(methylsulfonyl)-1H-indol-5-yl)oxy)phenyl)-1H-imidazol-5-yl)-1,3-dioxan-2-yl)phenyl)propanoic acid], the “DSLS NBD1/3D Human Stability delta-T” value was “A (A: T ≥ 10° C.)”. The entry for `CS(=O)(=O)c1c(Oc2ccc(F)c(-c3ncc(C4(c5cccc(CCC(=O)O)c5)CCC4)[nH]3)c2)c(F)cc2[nH]ccc12` [Example 46, 3-(3-(1-(2-(2-fluoro-5-((6-fluoro-4-(methylsulfonyl)-1H-indol-5-yl)oxy)phenyl)-1H-imidazol-5-yl)cyclobutyl)phenyl)propanoic acid] is “A (A: T ≥ 10° C.)”. Regarding `CS(=O)(=O)c1c(Oc2ccc(F)c(-c3nc(C4(c5cccc(CCC(=O)O)c5)CCCC4)c[nH]3)c2)c(F)cc2[nH]ccc12` [Example 47, 3-(3-(1-(2-(2-fluoro-5-((6-fluoro-4-(methylsulfonyl)-1H-indol-5-yl)oxy)phenyl)-1H-imidazol-5-yl)cyclopentyl)phenyl)propanoic acid], the “DSLS NBD1/3D Human Stability delta-T” value is “A (A: T ≥ 10° C.)”. The entry for `CC(C#N)(c1cccc(CCC(=O)O)c1)c1c[nH]c(-c2cc(Oc3c(F)cc4[nH]ccc4c3S(C)(=O)=O)ccc2F)n1` (stereo not shown) [Example 48, 3-(3-(1-Cyano-1-(2-(2-fluoro-5-((6-fluoro-4-(methylsulfonyl)-1H-indol-5-yl)oxy)phenyl)-1H-imidazol-4-yl)ethyl)phenyl)propanoic acid] is “A (A: T ≥ 10° C.)”.

With `CC(C#N)(c1cccc(CCC(=O)O)c1)c1cnc(-c2cc(Oc3c(F)c(F)c4[nH]ccc4c3S(C)(=O)=O)ccc2F)[nH]1` (stereo not shown) [Example 49, 3-(3-(1-Cyano-1-(2-(5-((6,7-difluoro-4-(methylsulfonyl)-1H-indol-5-yl)oxy)-2-fluorophenyl)-1H-imidazol-5-yl)ethyl)phenyl)propanoic acid], the “DSLS NBD1/3D Human Stability delta-T” value is “A (A: T ≥ 10° C.)”. The entry for `Cc1c(Oc2ccc(F)c(-c3ncc(C(C)(C#N)c4cccc(CCC(=O)O)c4)[nH]3)c2)c(F)cc2[nH]ccc12` (stereo not shown) [Example 50, 3-(3-(1-cyano-1-(2-(2-fluoro-5-((6-fluoro-4-methyl-1H-indol-5-yl)oxy)phenyl)-1H-imidazol-5-yl)ethyl)phenyl)propanoic acid] is “B (B: 5-10° C.)”. The same measure for `CCC(C#N)(c1cccc(CCC(=O)O)c1)c1c[nH]c(-c2cc(Oc3c(F)cc4[nH]ccc4c3C)ccc2F)n1` (stereo not shown) [Example 51, 3-(3-(1-cyano-1-(2-(2-fluoro-5-((6-fluoro-4-methyl-1H-indol-5-yl)oxy)phenyl)-1H-imidazol-4-yl)propyl)phenyl)propanoic acid]: “A (A: T ≥ 10° C.)”. The same measure for `CC(C#N)(c1cccc(CCC(=O)O)c1)c1cnc(-c2cc(Oc3c(F)c(F)c4[nH]ccc4c3C3CC3)ccc2F)[nH]1` (stereo not shown) [Example 53, 3-(3-(1-cyano-1-(2-(5-((4-cyclopropyl-6,7-difluoro-1H-indol-5-yl)oxy)-2-fluorophenyl)-1H-imidazol-5-yl)ethyl)phenyl)propanoic acid]: “B (B: 5-10° C.)”; for `CC(C#N)(c1cccc(CCC(=O)O)c1)c1cnc(-c2cc(Oc3c(F)c(F)c4[nH]ccc4c3F)ccc2F)[nH]1` (stereo not shown) [Example 54, 3-(3-(1-cyano-1-(2-(2-fluoro-5-((4,6,7-trifluoro-1H-indol-5-yl)oxy)phenyl)-1H-imidazol-5-yl)ethyl)phenyl)propanoic acid]: “B (B: 5-10° C.)”.

Values taken from patent US20240279220A1, “INDOLE COMPOUNDS AND METHODS OF USE” (Genzyme Corporation, priority 2021, published 2024).
